Measured values reported in article PMC12867150, “A fungi-derived cyclic peptide enhances Th9-mediated antitumor immunity by targeting ZAP70 and SREBP1” (The Journal of Clinical Investigation, 2025).
Values joined by “and” are separate entries in the source; they are usually repeats but may differ in a detail not shown here. Equal entries are not always repeated.

Tests used:
[1] = tested on: human Th9 cells; experiment: Intracellular ATP of human Th9 cells (Figure 8E); format: cell-based; conditions: result in words
Method: For Th9 polarization, cultures were supplemented with IL-4 (10 ng/mL, PeproTech, catalog AF-200-04), TGF-β (1 ng/mL), and neutralizing anti–IFN-γ monoclonal antibody (10 μg/mL, clone B27, BioXcell, catalog BE0245). After 3 days of initial culture, cells were either collected for downstream assays or continued in extended culture with refreshed cytokines to maintain lineage commitment without antibodies. Th9 cells were collected at days 4, 5, and 6 for subsequent in vitro assays. For adoptive transfer studies, day 4–cultured Th9 cells were washed and prepared for intravenous injection.
(§1) Intracellular adenosine triphosphate (ATP) levels were measured using a chemiluminescent ATP assay kit (Beyotime, catalog S0026) according to the manufacturer’s protocol. Briefly, cells were lysed and incubated with the luciferase-based detection reagent, and the resulting luminescent signal was detected using an Infinite M200 multimode microplate reader (TECAN). ATP concentrations were calculated based on a standard curve and normalized to cell number or protein content where applicable.

[2] = tested on: human Th9 CAR T cells; experiment: Intracellular ATP of human Th9 CAR T cells (S9F); format: cell-based; conditions: result in words
Method: as §1
Ct EpA Fat Fat Ct EpA Fat Fat
(A) Flow-cytometric analysis of intracellular IL-9 expression in human Th9 cells […]
(B) Flow-cytometric assessment of mitochondrial mass using Mito Tracker in human Th9 cells treated as in (A) (n = 3).
(C) Flow-cytometric analysis of infection efficiency in Th9 cells transduced with a CD19-directed CAR lentivirus. (D and E) Flow-cytometric analysis of IL-9 expression in human Th9 CAR-T cells on days 5 and 6 of in vitro differentiation, showing representative plots (D) and quantification (E) (n = 3). […]
(G) Flow-cytometric analysis of mitochondrial mass using Mito Tracker in human Th9 CAR-T c e l l s (n = 3). (H and I) Flow-cytometric analysis of granzyme B⁺ CAR-Th9 cells isolated from spleens after adoptive transfer, showing representative plots (H) and quantification (I) (n = 5 mice per group). […]

[3] = tested on: Th0 cells; experiment: Th0 polarization, IFN-γ by flow cytometry (Figure 1E); format: cell-based, mouse
Method: Naive CD4^+ T cells were isolated from the spleens of C57BL/6J or CD45.1^+ OT-II mice using the MojoSort Mouse CD4 Naive T Cell Isolation Kit (BioLegend, catalog 480040), following the manufacturer’s protocol. Purified cells were cultured in RPMI-1640 medium supplemented with 10% FBS, 1% penicillin-streptomycin, and 0.1% β-mercaptoethanol (Gibco, catalog 21985023).
T cell polarization was initiated under plate-bound anti-CD3 (2 μg/mL, clone 17A2, BioXCell, catalog BE0002) and soluble anti-CD28 (1 μg/mL, clone 37.51, BioXCell, catalog BE0015-1) stimulation, with the addition of cytokines and neutralizing antibodies specific to each subset. For Th9 cells, these included IL-4 (10 ng/mL, Peprotech, catalog 400-04), TGF-β (1 ng/mL, EPOTO Biotech, catalog HF-2021), anti–IL-12 (5 μg/mL, clone C17.8, BioXCell, catalog BE0051), and anti–IFN-γ (10 μg/mL, clone XMG1.2, BioXCell, catalog BE0055); for Th1 cells, these included IL-12 (10 ng/mL, GenScript, catalog Z03211-50) and anti–IL-4 (5 μg/mL, clone 11B11, BioXCell, catalog BE0045); for Th2 cells, these included IL-4 (50 ng/mL), anti–IFN-γ (20 μg /mL), anti–IL-12 (5 μg/mL), Th17 cells: IL-6 (20 ng/mL, EPOTO Biotech, catalog MF-1006), TGF-β (1 ng/mL), IL-1β (10 ng/mL, Peprotech, catalog AF-211-11B), anti–IFN-γ (10 μg/mL), anti–IL-12 (5 μg/mL), and anti–IL-4 (5 μg/mL); and for Tregs, these included TGF-β (3 ng/mL). […]

Question: What does the source list for anteiso-C15 Leu7 surfactin [EpA]?
Answer: ATP production, human Th9 [1]: increased; ATP output, Th9 CAR T [2]: elevated; IFN-γ expression under Th0 polarization ([3]; EpA 10 μM, individual replicates, n = 4): 31 and 32.2 and 35 and 26.8; effect on Th0 polarization ([3]; result in words): did not affect
